Results from patent publication US20260257992A1, “AGONISTS OF SMALL HETERODIMER PARTNER FOR CANCER THERAPY” (THE BOARD OF TRUSTEES OF THE UNIVERSITY OF ILLINOIS, priority 2023, published 2026).

What was measured:
[1] = test system: Treg expansion; assay: Treg expansion with PBMC-derived DCs of healthy volunteers; assay type: cell-based, human; conditions: cells from healthy volunteers
[2] = biological target: T1, NR0B2 (Mus musculus, UniProt Q62227); assay: Attenuation of GW3965 (LXR agonist) induction of ABCA1 mRNA in BMDMs; assay type: cell-based
T1 construct: Dose response assay in BMDMs pre-treated with increasing doses of DSHN-OMe and then treated with 1 μM GW3965, using ABCA1 mRNA as an endpoint; endogenous in cells; host or cells: mouse bone marrow derived macrophages (BMDMs)
T1 sequence (Q62227 1-260): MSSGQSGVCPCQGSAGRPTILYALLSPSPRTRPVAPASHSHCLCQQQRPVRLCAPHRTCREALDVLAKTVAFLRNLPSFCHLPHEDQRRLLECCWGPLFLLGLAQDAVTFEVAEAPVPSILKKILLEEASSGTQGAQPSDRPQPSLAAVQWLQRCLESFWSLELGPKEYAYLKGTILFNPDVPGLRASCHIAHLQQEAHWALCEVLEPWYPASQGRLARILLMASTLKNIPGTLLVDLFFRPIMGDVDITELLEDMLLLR
Procedure: FIG. 5A-5D. DSHN-OMe, an NR0B2 small molecule ligand with increased potency in terms of reducing Treg expansion and strong efficacy against metastatic mammary tumors. (A) DSHN-OMe effectively reduces induction of LXR target gene ABCA1 by GW3965. Different letters denote statistical difference between GW3965 treated groups (N=3-4/group, 1-way ANOVA followed by Šidák test). (B) Dose response assay in BMDMs pre-treated with increasing doses of DSHN-OMe and then treated with 1 μM GW3965, using ABCA1 mRNA as an endpoint. Data was normalized to 0.01 μM DSHN-OMe (0%) and GW3965 alone (100%). DSHN (100 μM) is indicated for comparison (bar at end of graph). […] (C) Thermal shift assay using a recombinant protein presence of a fluorescent dye. Plot of raw data is above plot of first derivative. (D) DSHN-OMe is ineffective at regulating ABCA1 when NR0B2 is knocked down with siRNA in BMDMs.
The TM for apo/unliganded was 46.74±0.22, DSHN-OMe at 46.92±0.17 and DSHN at 46.34±0.51° C. (FIG. 5C).

[3] = test system: ABCA1 mRNA; assay: ABCA1 mRNA reduction in Raw cells; assay type: cell-based; set-up: key: ✓: using strict cutoffs with respect to DSHN for passing each metric; X: using strict cutoffs with respect to DSHN for passing each metric; conditions: pass/fail with respect to DSHN
Excerpt: Development of a more efficacious NR0B2 agonist. While DSHN was a useful proof-of-concept small molecule, macrophages required high doses and chronic exposure for robust influences on subsequent Tregs expansion. […] Therefore, we synthesized several derivatives of DSHN and screened them using a reporter assay which makes use of the endogenous cholesterol homeostatic feedback loop, where FXR activation upregulates NR0B2, which then inhibits LXR and its normal induction of ABCA1. We then followed this screen with several others with stringent cutoffs: effect on endogenous ABCA1 and IL1β expression, reduction of Treg expansion in either macrophage or DC co-cultures, and low cellular toxicity (FIG. 5A, Table 4).

[4] = test system: Lewis Lung tumors; assay: Lewis Lung tumors grown in the flank; assay type: in vivo, mouse
Excerpt: FIG. 7A-7I. DSHN-OMe reduces tumor and metastatic growth in murine models, in a myeloid cell-NR0B2 dependent manner. (A) E0771 cells were grafted into control mice (NR0B2^+/+; LysMCre^+) or mice where NR0B2 was knocked out in myeloid immune cells (NR0B2^fl/fl; LysMCre^+). 8 days post-graft, daily treatment with placebo or DSHN-OMe was initiated and subsequent tumor growth followed through time. Different letters denote statistical difference on the final measurement (day 21, 2-Way ANOVA followed by Šidák's post-hoc, N=5-8). (B) Waterfall plot illustration of data in (A) showing tumor volume at final day of measurement. Asterisk indicates significant difference (Chi-squared test, P<0.05). (C) Lewis Lung cells were grafted into control mice (NR0B2^+/+; LysMCre^+) or mice where NR0B2 was knocked out in myeloid immune cells (NR0B2^fl/fl; LysMCre^+). 10 days post-graft, daily treatment with placebo or DSHN-OMe was initiated and subsequent tumor growth followed through time. […] (G) EMT6 metastatic lungs were assessed for Ki67 mRNA and (H) FOXP3 mRNA. (I) EMT6 metastatic lungs were assessed for CD8+ cytotoxic T cells (CD8+). […]
Since Tregs are considered a problem common to many solid tumor types, we reasoned that DSHN-OMe should have broad efficacy. To test this, we evaluated the ability of DSHN-OMe to influence the growth of murine Lewis Lung tumors grown in the flank.

[5] = test system: EMT6 metastatic lesions; assay: EMT6 metastatic mammary cancer (intravenous graft); assay type: in vivo, mouse
Excerpt: FIG. 7A-7I. DSHN-OMe reduces tumor and metastatic growth in murine models, in a myeloid cell-NR0B2 dependent manner. (A) E0771 cells were grafted into control mice (NR0B2^+/+; LysMCre^+) or mice where NR0B2 was knocked out in myeloid immune cells (NR0B2^fl/fl; LysMCre^+). 8 days post-graft, daily treatment with placebo or DSHN-OMe was initiated and subsequent tumor growth followed through time. Different letters denote statistical difference on the final measurement (day 21, 2-Way ANOVA followed by Šidák's post-hoc, N=5-8). (B) Waterfall plot illustration of data in (A) showing tumor volume at final day of measurement. Asterisk indicates significant difference (Chi-squared test, P<0.05). (C) Lewis Lung cells were grafted into control mice (NR0B2^+/+; LysMCre^+) or mice where NR0B2 was knocked out in myeloid immune cells (NR0B2^fl/fl; LysMCre^+). 10 days post-graft, daily treatment with placebo or DSHN-OMe was initiated and subsequent tumor growth followed through time. Different letters denote statistical difference on the final measurement (day 21, 2-Way ANOVA followed by Šidák's post-hoc, N=8-13). (D) Waterfall plot illustration of data in (C) showing tumor volume at final day of measurement. Asterisk indicates significant difference (Chi-squared test, P<0.05). (E) DSHN-OMe is an effective treatment against metastatic 4T1 mammary cancer growth. 4T1 cells were grafted intravenously, and lung metastatic lesions allowed to establish for 3d before treatment commenced. Metastatic burden through time is presented above the metastatic burden on the final day of imaging in the middle panel (N=12-17/group, mixed-effects model followed by Tukey's multiple comparison test). Representative luciferase images in the bottom panel. (F) DSHN-OMe is an effective treatment against metastatic EMT6 mammary cancer growth. EMT6 cells were grafted intravenously, and lung metastatic lesions allowed to establish for 3d. DSHN-OMe was administered on days 4, 5, 8, 9 and 10 post-graft. 11d post-graft lungs were imaged ex vivo for luciferase (N=15/group). (G) EMT6 metastatic lungs were assessed for Ki67 mRNA and (H) FOXP3 mRNA. (I) EMT6 metastatic lungs were assessed for CD8+ cytotoxic T cells (CD8+). Asterisks indicate statistically significant differences.
Metastatic breast cancer urgently requires new therapeutic approaches. Therefore, we tested the ability of DSHN-OMe to reduce the subsequent growth of established metastases. 4T1 cells were introduced intravenously and lesions allowed to establish for 3d. Since ICB has been approved for a subset of TNBC patients, we also included groups treated with αPDL1. […] We confirmed these findings using a different model of murine TNBC, EMT6. […]

| SMILES | Treg expansion, human PBMC-derived DCs [1] | IC50 ([2]; BMDMs pre-treated with compound, then 1 μM GW3965, 4 parameter variable slope fit, read-out: IC50, ABCA1 mRNA as endpoint) | LXR induction of ABCA1 ([2]; BMDMs, GW3965) | Attenuation of ABCA1 induction with NR0B2 knockdown ([2]; BMDMs, NR0B2 siRNA, GW3965) | ABCA1 mRNA reduction (Raw Cells) [3] | Lewis Lung tumor growth ([4]; NR0B2-replete mice, daily treatment from day 10, versus placebo) | Lewis Lung anti-tumor effect, dependence on myeloid NR0B2 ([4]; NR0B2fl/fl, LysMCre+ versus replete mice) | EMT6 metastatic burden ([5]; lungs imaged ex vivo 11 d post-graft) | CD8+ cytotoxic T cells in EMT6 metastatic lungs ([5]; mouse, in vivo) | Foxp3 expression in EMT6 metastatic lungs ([5]; mouse, in vivo) | Ki67 mRNA in EMT6 metastatic lungs ([5]; mouse, in vivo) |
| --- | --- | --- | --- | --- | --- | --- | --- | --- | --- | --- | --- |
| CCN(CC)S(=O)(=O)c1cccc2cc(C(=O)O)c(O)cc12 [DSHN, reference compound] | decreased Treg expansion |  |  |  |  |  |  |  |  |  |  |
| CCN(CC)S(=O)(=O)c1cccc2cc(C(=O)OC)c(O)cc12 [DSHN-OMe, Methyl 5-(N,N-diethylsulfamoyl)-3-hydroxy-2-naphthoate] |  | 3.8 µM | reducing LXR induction of ABCA1 in a dose-related manner | lost when NR0B2 was knocked down in BMDMs | ✓ | significantly reduced tumor growth | only observed in mice with replete myeloid cell expression of NR0B2 | significantly reduced metastatic burden | increase in the relative abundance of CD8+ cytotoxic T cells | decreased Foxp3 expression | decreased |
